According to US20200108009A1, “BIOAVAILABLE AEROSOLIZED SUPPLEMENT FORMULATIONS AND METHODS THEREOF” (Inhale Health LLC, priority 2017, published 2020):

Assays:
[1] = healthy individuals, cited from earlier work
[2] = Serum vitamin B12 levels after inhalation of aerosolized sample (Example 7); type: in vivo; conditions: 75 minutes after initial inhalation
Procedure: An electronic inhaler device powered by a 4.2V, 320 mAh lithium-ion battery was used to aerosolize a sample containing vitamin B12 in organic vegetable glycerin and 1,3-propanediol and the aerosolized sample was inhaled by test subjects. The sample was heated to between 75 to 260° C. with a 3 ohm heating element in about 2 to about 3 second intervals with about 5 to about 10 second rest periods for a total of […]. The mixture contained 60% glycerin and 40% 1,3-propanediol to which 2 mg/ml vitamin B12 was added. Serum vitamin B12 levels were measured in the test subjects before inhalation of the aerosolized sample and 75 minutes after initial inhalation of the aerosolized sample. Before inhalation, serum B12 levels averaged 403.0 pg/ml.

- increase of serum B12 compared to levels before inhalation [2]: 5.4%
- serum B12 levels after inhalation (average) ([2]; 2 mg/ml vitamin B12, before inhalation 403.0 pg/ml): 424.7 pg/mL
Substance: cobalamin [vitamin B12]
- fraction of oral supplement absorbed ([1]; 500 mcg oral supplement): 2%
- amount of oral supplement absorbed ([1]; of a 500 mcg oral supplement): about 10 mcg
